In paper PMC10666548, “Identification of the bacterial metabolite aerugine as potential trigger of human dopaminergic neurodegeneration” (Environment international, 2023):
“Also recorded” adds a separate entry of the source.

What was measured:
[1] = system: human dopaminergic neurons (LUHMES cells); assay: Cytotoxicity to mature (d6) LUHMES neurons, calcein-AM & H-33342 high content imaging; format: cell-based; conditions: d6 LUHMES; for cytotoxicity to DAergic neurons (viability): 24 h (24 h and 48 h for purified compounds)
Procedure: (§1) For toxicity assessment of mature LUHMES neurons, precursor cells were pre-differentiated for 2 days in cell culture flasks pre-coated as described above and differentiation medium. Then, 45′000 cells per well were seeded in differentiation medium into standard 96-well plates pre-coated as described above. They were incubated at 37 °C and 5% CO2 for 4 days before compound treatment. At this time, cells were >99% post-mitotic and had established an extensive neurite network ([Scholz et al., 2011]) The cell viability was assessed via the Calcein/Hoechst readout, the LDH assay and the resazurin reduction assay.
(§2) Neurite area (NA) and viability (V) were assessed as described previously ([Stiegler et al., 2011]). In brief, cells were stained with 1 μM calcein-AM and 1 μg/ml H-33342 for 30 min at 37 °C and 5% CO2. Image acquisition was performed using an Array-Scan VTI HCS Reader (Cellomics, PA, USA) equipped with a Hamamatsu ORCA-ER camera. 10 fields per well were imaged with 2 channels at 20x magnification (2×2 pixel binning). Excitation/emission wavelengths of 365 ± 50/535 ± 45 nm were used for Hoechst detection in channel 1 and 474 ± 40/535 ± 45 nm were used for calcein detection in channel 2.
Nuclei were identified in channel 1 depending on intensity, area, size and shape. Their outlines were expanded by 3.2 μm to define a virtual cell soma area (VCSA), which was bigger than the average cell soma to prevent false positive NAs. All calcein-positive pixels were defined as viable cellular structures (VCSs). The NA was automatically calculated by excluding the VCSAs from the VCSs. Furthermore all nuclei co-localizing with VCSs were defined as alive.

[2] = system: aerugine (10 μM) cytotoxicity in LUHMES cultures (d6); assay: Modulation of aerugine-induced neurodegeneration by mechanistic inhibitors; format: cell-based, human; conditions: 24 h; for maximal prevention of aerugine neurotoxicity / prevention of aerugine-induced cell death (viability): inhibitor 15 min prior to 10 μM aerugine
Procedure: as §1, §2
Fig. 4. Modulation of aerugine-induced neurodegeneration by mechanistic inhibitors. LUHMES cultures (d6) were used under standard conditions to assess the cytotoxicity of aerugine (10 μM) in the presence of various agents known to interfere with cell death pathways. A Treatment scheme: the respective inhibitors were applied 15 min prior to aerugine treatment (10 μM), and the viability was determined by high-content imaging after 24 h. B Inhibitors were used at different concentrations, as indicated. The main biochemical activity of each agent is indicated in brackets. Data are means ± SEM of at least three biological replicates with 3 technical replicates each. DFP = deferiprone; DFO = deferoxamine; qVD = caspase inhibitor; RIPK = receptor-interacting serine/threonine-protein kinase. For statistical analysis, the lowest concentration of inhibitor that produced the maximal protective effect (red) was compared to the treatment with aerugine alone using a two-tailed t-test (*: p = 0.01). C Exemplary pictures of LUHMES cultures after 24 h treatment: negative control (=DMSO), positive control (=10 μM aerugine), DFP (=20 μM DFP + 10 μM aerugine) and qVD (=5 μM qVD + 10 μM aerugine). Arrows indicate cells with a broken cell membrane (calcein-negative) and condensed nuclei (small H-33342-positive area). Arrow heads indicate disintegrating neurites (chains of calcein-positive blebs).

Row | Compound | cytotoxicity to DAergic neurons (viability) [1] | maximal prevention of aerugine neurotoxicity [2] | prevention of aerugine-induced cell death (viability) [2] | also measured
1 | O=C(O)C1CSC(c2ccccc2O)=N1 (stereo not shown) [DHAA, Dihydroaeruginoic acid, reference compound] | all toxicity was lost |  |  | 
2 | N[C@@H](CS)C(=O)O [cysteine] |  | 60–90% |  | 
3 | O=CC1CSC(c2ccccc2O)=N1 (stereo not shown) [dhIQS, dihydro-aeruginealdehyde] | all toxicity was lost |  |  | 
4 | O=c1c2ccccc2[se]n1-c1ccccc1 [ebselen] |  | 60–90% |  | 
5 | CC(C)[C@H](NC(=O)c1ccc2ccccc2n1)C(=O)N[C@@H](CC(=O)O)C(=O)COc1c(F)cccc1F [qVD] |  |  | completely prevented; also recorded: prevented cell death | neurite structure in presence of inhibitor ([2]; 10 μM aerugine): damage to the neurites still occurred and lost; optimal concentrations for prevention of cell death ([2]; 10 μM aerugine): 2 to 4 µM
6 | N[C@@H](Cc1ccc(O)c(I)c1)C(=O)O [3-iodo-tyrosine] |  |  | had no effect at all | 
7 | OCc1csc(-c2ccccc2O)n1 [aeruginol] | cytotoxic to DAergic neurons in a time- and concentration-dependent manner |  |  | 
8 | O=Cc1csc(-c2ccccc2O)n1 [IQS, aeruginealdehyde] | about equipotent with aeruginol |  |  | concentration range killing DAergic neurons ([1]; within 24 h): 10 to 25 µM
9 | CN1C(=O)C(Cc2c[nH]c3ccccc23)NC1=S (stereo not shown) [necrostatin-1] |  |  | only slightly attenuated cell death | 
10 | CCOC(=O)c1ccc(NC2CCCCC2)c(N)c1 [ferrostatin] |  | 60–90% |  | 
